Earlier results, collected in patent US20030187074A1, “Oral compositions for treatment of diabetes” (priority 2002, published 2003).

Conditions: Physician's Desk Reference, 2001, page 2980

Compound: CN(CCOc1ccc(CC2SC(=O)NC2=O)cc1)c1ccccn1 (stereo not shown) [rosiglitazone]
- half-life of elimination from the human body: 3 to 4 h
